Test: Qualitative solubility screen of Compound 1 HCl
Type: physicochemical
Description: The qualitative solubility screen was carried out to determine the range of solvents incorporated into future suspension equilibration panels.
Products that crystallized were centrifuged and analyzed as wet pellet by XRPD, dried under reduced pressure and re-analyzed by XRPD, with selected samples further analyzed by TGA and ^1H NMR spectroscopy.

[1] = Ethanol/Water (15% v/v, 0.5 aw), 5 vol

COc1ccc2c(ccn2C[C@@H](C)N(C)C)c1.Cl [Compound 1 HCl]
XRPD (dried pellet) (2-Propanol): Form A | XRPD (moist pellet) (2-Propanol): Paste | Solid on cooling? (2-Propanol, 10 vol): ✓ | Solution at reflux (2-Propanol, 10 vol): ✓ | Solution at reflux (2-Propanol, 15 vol): ✓ | XRPD (dried pellet) (Acetone): Form A | XRPD (moist pellet) (Acetone): Form A | XRPD (moist pellet) (Acetone/Water (5% v/v, 0.5 aw)): Solution | Solid on cooling (Acetone/Water (5% v/v, 0.5 aw), 5 vol): ✓ | Solution at reflux (Acetone/Water (5% v/v, 0.5 aw), 10 vol): ✓ | XRPD (dried pellet) (Chlorobenzene): Form A | XRPD (moist pellet) (Chlorobenzene): Paste | XRPD (moist pellet) (DCM): Form A | XRPD (moist pellet) (EtOAc): Form A | XRPD (dried pellet) (EtOH): Form A | XRPD (moist pellet) (EtOH): Form A | Solid on cooling (EtOH, 15 vol): ✓ | Solid on cooling (EtOH, 20 vol): ✓ | XRPD (moist pellet) (Ethanol/Water (15% v/v, 0.5 aw)): Solution | Solid on cooling [1]: ✓ | Solution at reflux [1]: ✓ | Solution at 20° C. (Ethanol/Water (15% v/v, 0.5 aw), 10 vol): ✓ | XRPD (moist pellet) (Ethyl formate): Form A | XRPD (moist pellet) (Heptane): Form A | XRPD (moist pellet) (Isopropanol/Water (12%, v/v, 0.5 aw)): Solution | Solid on cooling (Isopropanol/Water (12%, v/v, 0.5 aw), 5 vol): ✓ | Solution at reflux (Isopropanol/Water (12%, v/v, 0.5 aw), 10 vol): ✓ | XRPD (dried pellet) (MEK): Form A | XRPD (moist pellet) (MEK): Paste | XRPD (moist pellet) (MeCN): Form A | Solid on cooling (MeCN, 15 vol): ✓ | Solid on cooling (MeCN, 20 vol): ✓ | XRPD (moist pellet) (MeOH): Solution | Solution at reflux (MeOH, 10 vol): ✓ | XRPD (dried pellet) (MeTHF): Form A | XRPD (moist pellet) (MeTHF): Paste | XRPD (dried pellet) (Methyl acetate): Form A | XRPD (moist pellet) (Methyl acetate): Paste | XRPD (dried pellet) (Nitromethane): Form A | XRPD (moist pellet) (Nitromethane): Paste | Solid on cooling? (Nitromethane, 10 vol): ✓ | Solution at 40° C. (Nitromethane, 15 vol): ✓ | Solution at reflux (Nitromethane, 15 vol): ✓ | XRPD (moist pellet) (TBME): Form A | XRPD (dried pellet) (Toluene): Form A | XRPD (moist pellet) (Toluene): Paste | XRPD (moist pellet) (Water): Solution | Solution at 20° C. (Water, 5 vol): ✓ | Qualitative solubility (polar and aqueous solvents at temperature, panel of 22 solvents): soluble | Qualitative solubility (polar solvents and solvents with high water activity): readily soluble

Source: patent US12319652B2, “Salts and solid forms of (R)-1-(5-methoxy-1H-indol-1-yl)-N,N-dimethylpropan-2-amine” (priority 2021, dated 2025)
